In the assay the test system is coenzyme-linked glucose dehydrogenase. The experiment in a line: Inhibitor test with 1,10-phenanthroline. Format: biochemical, Aspergillus terreus. The protocol: 1.0 ml of 0.1 M potassium phosphate buffer (pH 7.0), 1.0 ml of 1.0 M D-glucose, 0.1 ml of 3 mM 2,6-dichlorophenolindophenol (hereinafter, referred to as DCIP), 0.2 ml of 3 mM 1-methoxy-5-methylphenazium methylsulfate, and 0.65 ml of water are placed in a 3 ml quartz cell (with an optical path length of 1 cm), and then the cell is placed in a spectrophotometer equipped with a thermostat cell holder. After the cell is incubated at 37° C. for five minutes, 0.05 ml of an enzyme liquid is added thereto, followed by measuring absorbance change (αABS/min) of DCIP at 600 nm. The mol-absorption coefficient of DCIP at pH 7.0 is defined to be 16.3×10^3 cm^−1M^−1. Since one unit of the enzyme activity is substantially equivalent to the enzyme activity that reduces 1 μmol of DCIP per minute, the enzyme activity is determined by absorbance change in accordance with the following formula. To the reaction system in the activity measurement method-1, 1,10-phenanthroline dissolved in methanol so that each final concentration was 1 mM, 5 mM, 10 mM, 25 mM, or 50 mM, was added, followed by measuring the activity of the purified enzymes 1 to 6 by the activity measurement method-1. […] As a control, methanol was added to the reaction system in the activity measurement method-1 at the final concentration of 10% (v/v), and then the activity was measured by the activity measurement method-1. […]

For `c1cnc2c(c1)ccc1cccnc12` [1,10-phenanthroline], the inhibition ratio (1,10-phenanthroline at final concentration of 1 mM or more, purified enzymes 1 to 6, 10% (v/v) methanol) is listed as at least 60%. Further, under “GLD according to the invention, general characteristics, concentration not given”, the “inhibition of the activity by 1,10-phenanthroline” value is “At least 60%”.

Source of the values: US9328372B2, “Coenzyme-linked glucose dehydrogenase and polynucleotide encoding the same” (Ikeda Food Research Co., Ltd., priority 2005, dated 2016).
